Where a name gives a salt, the structure may show the parent alone.
Assays:
Assay type in all cases: cell-based, Pseudomonas aeruginosa
[1] = test system: P. aeruginosa strain PAO1; test: Static biofilm inhibition assay (crystal violet), PAO1; details: for IC50: inhibition of biofilm formation, crystal violet, 24 hours
Method: Each compound was assayed for the ability to inhibit the formation of P. aeruginosa biofilms. […] We employed a standard crystal violet reporter assay to assess for the formation of biofilms. Briefly, P. aeruginosa strain PAO1 was allowed to form biofilms in a multi-well plate in the absence or presence of our compounds. Planktonic (or free growing) bacteria were then removed, wells washed vigorously, and crystal violet added. Crystal violet stains the remaining bacteria which, following ethanol solubilization, can be quantitated by spectrophotometry (A540).
(§1) An overnight culture of the bacterial strain being screened against was subcultured at an OD600 of 0.1 into the media used (listed below with strain) and then pipetted into test tubes along with a predetermined concentration of our compound of interest. Test tubes were then poured into tilted Petri dishes and 100 μL of media, strain and compound were then transferred into 96-well PVC microtiter plates. These microtiter plates were then covered, wrapped in Saran™ Wrap polyethylene film (S.C. Johnson, Racine, Wis.) and allowed to incubate at 37° C. for 24 hours. After that time, the medium was discarded and the plates were thoroughly washed with water. The remaining biofilm that was formed during incubation was stained with 100 μL of a 0.1% crystal violet solution and allowed to incubate at room temperature for 30 minutes. After 30 minutes, the crystal violet was discarded and washed thoroughly again with water. The remaining crystal violet that had stained the biofilm in the inside walls of the 96-well PVC plates was solubilized with 200 μL of 95% ethanol. The quantification of biofilm formation was accomplished by transferring 125 μL of the ethanol solution into a polystyrene microtiter dish, which was read by spectrophotometry (A540). After the background has been subtracted from each row, a percent inhibition can be calculated by dividing the amount of crystal violet in wells that contained compound by the amount of crystal violet in wells that contained bacteria only. Each concentration reported during the course of this study was repeated two to five times with each of those biofilm inhibition assays being done in 6 replicates each.
(§2) An overnight culture of the wild type strain was subcultured at an OD600 of 0.10 into LBNS along with a predetermined concentration of the small molecule to be tested for biofilm inhibition. Samples were then aliquoted (100 μL) into the wells of a 96-well PVC microtiter plate. The microtiter dishes were covered and sealed before incubation under stationary conditions at 37° C. for 24 hours. After that time, the medium was discarded and the plates thoroughly washed with water. The wells were then inoculated with a 0.1% aqueous solution of crystal violet (100 μL) and allowed to stand at ambient temperature for 30 minutes. Following another thorough washing with water the remaining stain was solubilized with 200 μL of 95% ethanol. Biofilm inhibition was quantitated by measuring the OD540 for each well by transferring 125 μL of the ethanol solution into a fresh polystyrene microtiter dish for analysis.
(§3) To examine each compound's ability to inhibit the formation of Pseudomonas aeruginosa biofilms, PAO1 and PA14 were employed as the target bacterial strains using a crystal violet reporter assay. G. A. O'Toole, R. Kolter, Mol. Microbiol. 1998, 28, 449. All compounds were initially screened at 500 μM for anti-biofilm activity.
An overnight culture of the wild type strain was subcultured at an OD600 of 0.10 into LBNS along with a predetermined concentration of the small molecule to be tested for biofilm inhibition. Samples were then aliquoted (100 μL) into the wells of a 96-well PVC microtiter plate. The microtiter dishes were covered and sealed before incubation under stationary conditions at 37° C. for 24 hours, After that time, the medium was discarded and the plates thoroughly washed with water. […]

P. aeruginosa PA14 = test: Static biofilm inhibition assay (crystal violet), PA14; details: for inhibition at 500 µM: PA14, 24 h; for IC50: inhibition of biofilm formation, crystal violet, 24 hours
Method: as §1, §2, §3
as §2, with “for 24 hours, After that” for “for 24 hours. After that”, “violet (100 pt) and allowed” for “violet (100 μL) and allowed”

[2] = test system: planktonic P. aeruginosa PAO1; test: Planktonic growth (growth curves, colony counts), PAO1; details: growth curves and/or colony counts, presence vs absence of compound, at IC50 or as stated
From the text: To answer the question of whether the compounds were antibiotics or true inhibitors of biofilm formation, we tested the ability of both compounds to inhibit growth of planktonic P. aeruginosa. Growth was quantitated by measuring optical density at 600 nm. […]

[3] = test system: planktonic P. aeruginosa PA14; test: Planktonic growth (growth curves, colony counts), PA14; details: growth curves and/or colony counts, presence vs absence of compound, at IC50 or as stated
[4] = listed as sventrin 24, Hydrochloride
[5] = listed as sventrin (6), Hydrochloride

| SMILES | inhibition at 500 µM ([1]; Pseudomonas aeruginosa, PAO1) [%] | inhibition at 500 µM (P. aeruginosa PA14; Pseudomonas aeruginosa) [%] | other results |
| --- | --- | --- | --- |
| Cl.Cn1cccc1C(=O)NCCCc1c[nH]c(N)n1 [Compound 21, 1-methyl-pyrrole-2-carboxylic acid [3-(2-amino-1H-imidazol-4-yl)-propyl]-amide hydrochloride] | 25 |  | inhibition of PA14 biofilm formation (in words) (P. aeruginosa PA14; screen at 500 μM): inactive |
| Nc1nc(CCCNC(=O)c2cc(Cl)c(Cl)[nH]2)c[nH]1 [Compound 20, 4,5-dichloro-1H-pyrrole-2-carboxylic acid [3-(2-amino-1H-imidazol-4-yl)-propyl]-amide hydrochloride] | 37 | 48 |  |
| O=C(NCCc1c[nH]cn1)c1ccc[nH]1 [Compound 34, 1H-pyrrole-2-carboxylic acid [2-(1H-imidazol-4-yl)-ethyl]amide hydrochloride] | 42 | 31 |  |
| Nc1nc(CCCNC(=O)c2cc(Br)c(Br)[nH]2)c[nH]1 [Compound 19, 4,5-dibromo-1H-pyrrole-2-carboxylic acid [3-(2-amino-1H-imidazol-4-yl)-propyl]-amide hydrochloride] | < 70 | < 70 |  |
| Cn1c(C(=O)NC/C=C/c2cnc(N)[nH]2)cc(Br)c1Br [sventrin, Sventrin Hydrochloride, reference compound] |  |  | IC50 [1]: 75 ± 5 µM; IC50 (P. aeruginosa PA14): 115 ± 3 µM; microbicidal effect on PAO1 planktonic growth (in words) [2, 4]: did not induce microbial cell death; microbicidal effect on PAO1 planktonic growth (in words) [2, 5]: not due to a bactericidal effect; microbicidal effect on PA14 planktonic growth (in words) [3, 4]: did not induce microbial cell death; microbicidal effect on PA14 planktonic growth (in words) [3, 5]: not due to a bactericidal effect |
| Cn1c(C(=O)NCCCc2c[nH]c(=S)[nH]2)cc(Br)c1Br [Compound 49, 4,5-dibromo-1-methyl-pyrrole-2-carboxylic acid [3-(2-thioxo-2,3-dihydro-1H-imidazol-4-yl)-propyl]-amide] | 46 | 38 |  |
| O=C(NCCCc1c[nH]c(=S)[nH]1)c1ccc[nH]1 [Compound 43, 1H-pyrrole-2-carboxylic acid [3-(2-thioxo-2,3-dihydro-1H-imidazol-4-yl)-propyl]-amide] | 39 | 33 |  |
| Cn1cc(Br)cc1C(=O)NCCCc1c[nH]c(N)n1 [Compound 22, 4-bromo-1-methyl-pyrrole-2-carboxylic acid [3-(2-amino-1H-imidazol-4-yl)-propyl]-amide hydrochloride] | 88 | 83 | IC50 ([1]; Pseudomonas aeruginosa, PAO1): 348 ± 13 µM; IC50 (P. aeruginosa PA14; Pseudomonas aeruginosa, PA14): 309 ± 16 µM |
| O=C(NCCCc1c[nH]c(=S)[nH]1)c1cc(Br)c[nH]1 [Compound 44, 4-bromo-1H-pyrrole-2-carboxylic acid [3-(2-thioxo-2,3-dihydro-1H-imidazol-4-yl)-propyl]-amide] | 28 | 14 |  |
| O=C(NCCCc1c[nH]c(=S)[nH]1)c1cc(Cl)c(Cl)[nH]1 [Compound 46, 4,5-dichloro-1H-pyrrole-2-carboxylic acid [3-(2-thioxo-2,3-dihydro-1H-imidazol-4-yl)-propyl]-amide] | 41 | 38 |  |
| CCCCCCNC(=O)CCCc1c[nH]c(N)n1 [Compound 9, 4-(2-amino-1H-imidazol-4-yl)-N-hexyl-butyramide hydrochloride] |  |  | IC50 ([1]; Pseudomonas aeruginosa, PAO1): 32.7 ± 6.5 µM; IC50 (P. aeruginosa PA14; Pseudomonas aeruginosa, PA14): 39.9 ± 13 µM |
| O=C(NCCc1c[nH]cn1)c1cc(Br)c(Br)[nH]1 [Compound 36, 4,5-dibromo-1H-pyrrole-2-carboxylic acid [2-(1H-imidazol-4-yl)-ethyl]-amide hydrochloride] | 73 | 69 |  |
| Nc1nc(CCCNC(=O)c2cc(Br)c[nH]2)c[nH]1 [Compound 18, 4-bromo-1H-pyrrole-2-carboxylic acid [3-(2-amino-1H-imidazol-4-yl)-propyl]-amide hydrochloride] | 74 | 86 | IC50 ([1]; Pseudomonas aeruginosa, PAO1): 323 ± 30 µM; IC50 (P. aeruginosa PA14; Pseudomonas aeruginosa, PA14): 266 ± 23 µM |
| O=C(NCCCc1c[nH]c(=S)[nH]1)c1cc(Br)c(Br)[nH]1 [Compound 45, 4,5-dibromo-1H-pyrrole-2-carboxylic acid [3-(2-thioxo-2,3-dihydro-1H-imidazol-4-yl)-propyl]-amide] | 61 | 56 |  |
| Cn1c(C(=O)NCCC=C2NC(N)=NC2=O)cc(Br)c1Br [Compound 32, 4,5-dibromo-1-methyl-pyrrole-2-carboxylic acid [3-(2-amino-5-oxo-3,5-dihydro-imidazol-4-ylidene)-propyl]-amide hydrochloride, reference compound] | < 20 | < 20 |  |
| O=C(NCCc1c[nH]cn1)c1cc(Cl)c(Cl)[nH]1 [Compound 37, 4,5-dichloro-1H-pyrrole-2-carboxylic acid [2-(1H-imidazol-4-yl)-ethyl]-amide hydrochloride] | 33 | 38 |  |
| CCCCCCCCNC(=O)CCCc1c[nH]c(N)n1 [Compound 10, 4-(2-amino-1H-imidazol-4-yl)-N-octyl-butyramide hydrochloride] |  |  | IC50 ([1]; Pseudomonas aeruginosa, PAO1): 18.4 ± 2.3 µM; IC50 (P. aeruginosa PA14; Pseudomonas aeruginosa, PA14): 13.3 ± 1.8 µM |
| Cn1cc(Br)cc1C(=O)NCCc1c[nH]cn1 [Compound 39, 4-bromo-1-methyl-pyrrole-2-carboxylic acid [2-(1H-imidazol-4-yl)-ethyl]amide hydrochloride] | 37 | 21 |  |
| Cn1cccc1C(=O)NCCc1c[nH]cn1 [Compound 38, 1-methyl-pyrrole-2-carboxylic acid [2-(1H-imidazol-4-yl)-ethyl]amide hydrochloride] | 29 | 34 |  |
| Cn1cccc1C(=O)NCCCc1c[nH]c(=S)[nH]1 [Compound 47, 1-methyl-pyrrole-2-carboxylic acid [3-(2-thioxo-2,3-dihydro-1H-imidazol-4-yl)-propyl]-amide] | 27 | 36 |  |
| Cl.Nc1nc(CCCNC(=O)c2ccc[nH]2)c[nH]1 [Compound 17, 1H-pyrrole-2-carboxylic acid [3-(2-amino-1H-imidazol-4-yl)-propyl]-amide hydrochloride] | < 10 | 16 | % Biofilm Inhibition at 500 μM vs PAO1 ([1]; 500 μM, hydrochloride): <10% |
| Cn1cc(Br)cc1C(=O)NCCCc1c[nH]c(=S)[nH]1 [Compound 48, 4-bromo-1-methyl-pyrrole-2-carboxylic acid [3-(2-thioxo-2,3-dihydro-1H-imidazol-4-yl)-propyl]-amide] | 41 | 57 |  |
| O=C(NCCc1c[nH]cn1)c1cc(Br)c[nH]1 [Compound 35, 4-bromo-1H-pyrrole-2-carboxylic acid [2-(1H-imidazol-4-yl)-ethyl]-amide hydrochloride] | 46 | 43 |  |
